“Also recorded” adds a separate entry of the source.
How the values were obtained:
[1] = system: B16 melanoma heparanase; assay: Enzymatic degradation of 3H-labeled glycosaminoglycans by B16 melanoma cell extract, analysed by high-speed gel permeation chromatography; format: biochemical, mouse; settings: for Degradation (heparanase susceptibility): 3H-labeled glycosaminoglycan, cell extract 80 ug protein, pH 6.0, 6 hr at 37 C, 20 mM SAL, decrease in area of high Mr half of peak; for Percentage degradation of the original substrate: first 6 h incubation with B16 cell extract; for Cleavage by melanoma heparanase (in words): B16 melanoma cell extracts in presence of SAL, FIG. 2
Source text: The abilities of B16 cells to degrade HS from various origins and other purified glycosaminoglycans (heparin, chondroitin 4-sulfate, chondroitin 6-sulfate, dermatan sulfate, keratan sulfate, and hyaluronic acid) has been studied. […] HS metabolically labeled with [^35 S] sulfate was purified from basement membrane producing EHS sarcoma and PYS-2 carcinoma cells, and subendothelial matrices of bovine aortic endothelial (BAE) and corneal endothelial (BCE) cells (ibid). HS molecules purified from bovine lung and other glycosaminoglycans were labeled with tritium at their reducing termini using NaB[^3 H]4. […] In order to determine specific HS cleavage points, the newly formed reducing termini of HS fragments were investigated by: labeling with NaB[^3 H]4; hydrolysis to monosaccharides; and analysis of these saccharides by paper chromatography.
High-speed gel permeation chromatography. […] A one hundred microliter aliquot of sample solution was delivered into the injection port, and the chromatographic elution was performed with 0.2M sodium chloride at a flow rate of 1.0 ml/min at 55° C. […] In the analysis of radiolabeled materials, fractions corresponding to each 36 s of elution (0.6 ml) were collected and mixed with 3.0 ml of Liquiscint (National Diagnostics, Comerville, N.J.), and counted on a Beckman LS 2800 liquid scintillation counter (Beckman Instruments, Irvine, Calif.).
Enzymatic degradation of unmodified and modified HS. […] The incubation was carried out at 37° C. with gentle mixing, and was terminated by chilling the mixture to 4° C. and adding 20 ul of trichloroacetic acid to a final concentration of 5%. The supernatant was obtained by centrifugation at 9800×g for 5 min and it was subjected to analysis by high-speed gel permeation chromatography.
The effect of N-desulfation and N-acetylation of HS on its susceptibility to melanoma heparanase was assessed using HS labeled with tritium at the reducing terminal saccharide. […] HS labeled with tritium at the reducing end was N-desulfated by solvolysis with DMSO, and N-desulfated [^3 H]HS was then N-acetylated with acetic anhydride. These three ^3 H-labeled, chemically modified HS molecules were analyzed by cellulose acetate electrophoresis in 0.5M pyridine-acetate buffer, pH 5.0.
N-Desulfated and N-acetylated heparin.

[2] = system: human melanoma heparanase; assay: Inhibition of human melanoma heparanase; format: biochemical
Source text: Properties of human melanoma heparanase.

[3] = system: B16 melanoma heparanase; settings: labeled glycosaminoglycans, with or without D-saccharic acid 1,4-lactone; cited from earlier work
[4] = system: B16 melanoma heparanase; settings: cited from earlier work
[5] = system: human melanoma heparanase; assay: Degradation by heparanase obtained from a human melanoma cell line; format: biochemical

Substance | Degradation (heparanase susceptibility) [1] | Degradation by B16 cell extracts (earlier publications) [3] | other results
N,O-Desulfated and N-acetylated HS | + (more than 80%) |  | 
Heparin | - (less than 5%) | essentially undegraded; also recorded: inactive | Percentage degradation of the original substrate [1]: less than 5%; Inhibition of melanoma heparanase (in words) [2]: potent inhibitors; Inhibition of HS degradation / B16 melanoma heparanase (earlier publications) [4]: inhibited HS degradation; also recorded: potent inhibitor
N,O-Desulfated and N-acetylated heparin | ± (5% to 15%) |  | 
N-Desulfated and N-methylated heparin | - (less than 5%) |  | 
keratan sulfate |  | essentially undegraded | 
N-Desulfated heparin | - (less than 5%) |  | 
dextransulfate |  |  | Inhibition of melanoma heparanase (in words) [2]: potent inhibitors
N-desulfated N-acetylated heparan sulfate [N-Desulfated and N-acetylated HS] | + (more than 80%) |  | Cleavage by melanoma heparanase (in words) [1]: cleaved by melanoma heparanase at high rates; Degradation by human melanoma heparanase (in words) [5]: efficiently cleave
N-desulfated heparan sulfate [N-Desulfated HS] | + (more than 80%) |  | Cleavage by melanoma heparanase (in words) [1]: cleaved by melanoma heparanase at high rates; Degradation by human melanoma heparanase (in words) [5]: efficiently cleave
chondroitin 4-sulfate |  | essentially undegraded | 
Carboxyl reduced heparin | - (less than 5%) |  | 
chondroitin 6-sulfate |  | essentially undegraded | 
N,O-Desulfated heparin | - (less than 5%) |  | 
N,O-Desulfated HS | + (more than 80%) |  | 
Heparan sulfate [Heparan sulfate (HS)] | + (more than 80%) | degraded into fragments of characteristic molecular weight | Cleavage by melanoma heparanase (in words) [1]: cleaved by melanoma heparanase at high rates; Degradation by human melanoma heparanase (in words) [5]: degrades heparan sulfate
N-desulfated N-acetylated heparin [N-Desulfated and N-acetylated heparin] | ± (5% to 15%) |  | Percentage degradation of the original substrate [1]: approximately 20%; Further cleavage after prolonged incubation ([1]; prolonged incubation with B16 cell extract): not further cleaved; Degradation by human melanoma heparanase (in words) [5]: only partially degrade
hyaluronic acid |  | essentially undegraded | 
dermatan sulfate |  | essentially undegraded | 

Source: US5332812A, “Solid-phase substrate containing modified heparin” (Board of Regents, The University of Texas System, priority 1991, dated 1994)
